Laboratory results: US8551999B2, “Heterocyclic compound and pharmaceutical composition thereof” (Otsuka Pharmaceutical Co., Ltd., priority 2007, dated 2013)

Columns and labels:
[1] = test system: human chronic myelocytic leukemia cells (KU812); experiment: Antiproliferative effect on cancer cells (in vitro), WST-8 assay, KU812; type: cell-based; settings: 5 days incubation with test compound
Protocol: The growth inhibition on human chronic myelocytic leukemia cells (KU812) was determined by a WST-8 assay according to the method of Singh A K, et al. (Cancer Lett. 1996 Oct. 1; 107(1): 109-15.). In this method, KU812 cells were seeded in RPMI 1640 medium containing 10% fetal bovine serum in a 96-well microplate and incubated at 37° C. for 24 hours in the presence of 5% carbon dioxide. Then, the test compound was added and the cells were incubated for another 5 days. After incubation, 15 μL of 5 mM WST-8 (2-(2-methoxy-4-nitrophenyl)-3-(4-nitrophenyl)-5-(2,4-disulfenyl)-2H-tetrazolium, monosodium salt) was added and the cells were incubated for 2 hours. After the 2-hour incubation, 15 μL of 1% SDS (sodium dodecyl sulfate) was added and the optical density was determined at the measurement wavelength of 450 nm and the reference wavelength of 630 nm, and the difference was calculated. The cell growth activity in each well was defined as the value determined by subtracting the OD in the control well not containing cells (the difference in absorbance between 492 nm and 690 nm) from that in the test well.
(§1) The 50% inhibitory concentration (IC50 (nM)) of the test compound was determined by comparing the cell growth activity in the well containing the test compound with that of the control not containing the test compound.

[2] = test system: Human hepatic cancer cells (HuH-7); experiment: Antitumor effect on hepatic cancer cells, HuH-7 (in vivo); settings: SCID mice bearing HuH-7 tumor, 10 mg/kg/day orally, once daily, 9 consecutive days; ratio of relative tumor volume treatment/control
Protocol: Human hepatic cancer cells (HuH-7) were transplanted in SCID mice (6 females/group) and the inhibitory effect of the invention on their growth was examined. In the study, 0.2 mL of a cell suspension adjusted to contain 2.5×10^7 cells/mL was injected subcutaneously in the right axilla to prepare tumor bearing mice. When the tumor diameter became 5 mm or more, the animals were allocated to groups based on the tumor volume. The test compound was administered orally as a suspension in 5% gum arabic, once daily, for 9 consecutive days. The control group received 5% gum arabic. Tumor volumes were measured on the following day of the last administration. The relative tumor volume was determined by calculating the ratio of the tumor volume on the following day of the last administration to that at group allocation. The ratio of the relative tumor volume in the treatment group to that in the control group (T/C %) was calculated as the index for the effect. Relative tumor volume=Tumor volume on the following day of the last administration/Tumor volume at group allocation. T/C %=(Mean relative tumor volume in the treatment group/Mean relative tumor volume in the control group)×100.

[3] = test system: LI90 cells, a human hepatic stellate cell line; experiment: Inhibitory effect on collagen synthesis (in vitro); type: cell-based; settings: in the presence of recombinant human TGF-β1, 3H-proline labelled collagen in supernatant
Protocol: Inhibitory Effect on Collagen Synthesis (In Vitro)
LI90 cells, a human hepatic stellate cell line, were suspended in DMEM (Dulbecco's modified eagle medium) supplemented with 10% inactivated FBS (fetal bovine serum), seeded on a 12-well plate and cultured in a CO2 incubator (preset temperature: 37° C., preset CO2 concentration: 5%). After being cultured for 24 hours, the cells were washed with D-PBS (Dulbecco's phosphate buffered saline), placed in MEM (Eagle's minimum essential medium) supplemented with 0.1% inactivated FBS and then cultured in a CO2 incubator. After being cultured for 3 days, the cells were again washed with D-PBS, placed in MEM (Eagle's minimum essential medium) supplemented with 0.1% inactivated FBS and treated with or without a test compound in the presence of […] recombinant human TGF-β1 (transforming growth factor-β1) in a CO2 incubator for 16 hours. After the incubation, the cells were washed with D-PBS and the medium was replaced with MEM containing 0.25 mM ascorbate. A radio-labeled compound, ^3H-proline, was then added to the culture medium to radio-label the collagen proteins produced. After being cultured for 24 hours, the supernatant was collected and the collagen proteins were extracted from the supernatant as acid-soluble fractions. The amount of collagen produced was determined by measuring the radioactivity contained in the fractions. A concentration of test compound that produced 50% inhibition [IC50 value (nM)] on collagen synthesis was calculated by comparing the radioactivity count in a supernatant of test-compound-treated cells with that of untreated cells (control).

[4] = test system: human hepatic cancer cells (HuH-7); experiment: Antiproliferative effect on cancer cells (in vitro), sulforhodamine B method, HuH-7; type: cell-based; settings: HuH-7 cells, 5 days incubation with test compound
Protocol: (§2) Growth inhibition of human hepatic cancer cells (HuH-7) was determined by the sulforhodamine B method based on the method of Skehan P. et al. (J Natl Cancer Inst. 1990 Jul. 4; 82(13): 1107-12). In the study, HuH-7 cells were seeded on DMEM medium containing 10% fetal bovine serum in a 96-well microplate. After 24-hour incubation at 37° C. in the presence of 5% carbon dioxide, the test compound was added and the cells were incubated for another 5 days. After incubation, a trichloroacetic acid solution was added to yield the final concentration of 10% and the cells were left to stand at 4° C. for 1 hour to fix. Then, the cells were washed with water to remove the medium and trichloroacetic acid and dried in the air. The dried cells were stored at 4° C. until they were stained with sulforhodamine B. To each well, 1% acetic acid solution containing 0.4% sulforhodamine B was added and left to stand for 20 to 30 minutes at room temperature. After discarding the supernatant, each well was washed with 1% acetic acid solution, and 10 mM Tris ([…]) solution was added while stirring to elute the dye taken into the cells. Then, the optical density was determined at the measurement wavelength of 492 nm and the reference wavelength of 690 nm, and the difference was calculated. The cell growth activity in each well was defined as the value determined by subtracting the OD in the control well not containing cells (the difference in absorbance between 492 nm and 690 nm) from that in the test well.
as §1

[5] = test system: human pancreatic cancer cells (HPAC); experiment: Antiproliferative effect on cancer cells (in vitro), sulforhodamine B method, HPAC; type: cell-based; settings: 5 days incubation with test compound
Protocol: as §2, §1
The growth inhibition on human pancreatic cancer cells (HPAC) was also determined by the above method using HPAC instead of HuH-7 and RPMI 1640 medium containing 10% fetal bovine serum instead of the DMEM medium containing 10% fetal bovine serum.

STAT3 = experiment: Inhibitory effect on IL-6-induced STAT3 phosphorylation in human myeloma cells (in vitro); type: cell-based; settings: U266B1 human myeloma cells, IL-6 1 ng/mL, pSTAT3 (Y705) by flow cytometry
Protocol: The inhibitory effect of the test compound on phosphorylation of STAT3 (signal transducer and activator of transcription-3) in human myeloma cells ([…]) induced by interleukin-6 (IL-6) was examined using the modified method of Tochizawa S. et al. (J Immunol Methods. 2006 Jun. 30; 313(1-2): 29-37). In the study, U266B1 cells were seeded in an RPMI 1640 medium containing 10% fetal bovine serum (FBS) in a 12-well plate and incubated at 37° C. for 2 hours in the presence of carbon dioxide. After incubation, IL-6 was added to yield the concentration of 1 ng/mL and the cells were incubated at 37° C. for 15 minutes in the presence of 5% carbon dioxide. After fixation of the cells by the addition of a buffer containing formaldehyde (Lyse/Fix Buffer, BD Biosciences) at room temperature for 10 minutes, the suspension was centrifuged to remove the supernatant and the cells were treated with ice-cold methanol for 10 minutes to improve the permeability of the cell membrane. The cells were centrifuged to remove methanol and washed twice with Dulbecco's phosphate buffered saline (D-PBS) containing 2% fetal bovine serum (FBS). A fluorescence-labeled anti-phosphorylated STAT3 (pSTAT3) antibody (Alexa Fluor 488-labeled anti-pSTAT3 (Y705) antibody, BD Biosciences) was added for staining in an ice bath for 30 minutes.
The cells were washed once with 2% FBS-containing D-PBS and suspended in 2% FBS-containing D-PBS, and the fluorescence intensity was determined using a flow cytometer (FACS Sort, BD Biosciences). The ratio of fluorescence intensity in the test group to the control group (T/C) was determined from the difference in the geometric mean of pSTAT3 fluorescence intensity between the test compound group of each concentration and the non-stimulated control group according to the following equation by defining the difference in the geometric mean of pSTAT3 fluorescence intensity between the IL-6 induced control and the non-stimulated control as 100%. T/C(%)=([…] of pSTAT3 fluorescence intensity in the cells treated with the test compound—geometric mean of pSTAT3 fluorescence intensity in non-stimulated control)/(geometric mean of fluorescence intensity of IL-6-induced pSTAT3 in the control−geometric mean of pSTAT3 fluorescence intensity in non-stimulated control)×100.
The concentration of the test compound inhibiting phosphorylation of STATS at 50% (IC50; concentration of the test compound corresponding to 50% T/C(%)) was determined using T/C(%) values at the respective concentrations and defined as the index for the inhibitory activity.

Structure (SMILES)	IC50 [1]	T/C % [2]	IC50 [3]	IC50 [4]	IC50 [5]	IC50 ([1]; Homo sapiens, 120 h)	melting point	IC50 (STAT3)	IC50 ([4]; Homo sapiens, 120 h)	IC50 ([5]; Homo sapiens, 120 h)
Br.CN(C(=O)c1ccc(OC(F)(F)F)cc1)c1ccc(Oc2ccc3cc(C(=O)N4CCN(Cc5ccc(OC(F)F)cc5)CC4)n(C)c3c2)nc1 [Example 473, N-(6-{2-[4-(4-Difluoromethoxybenzyl)piperazine-1-carbonyl]-1-methyl-1H-indol-6-yloxy}pyridin-3-yl)-N-methyl-4-trifluoro-methoxybenzamide hydrobromide]	< 2 nM	<50%	< 10 nM	< 10 nM	< 70 nM					
CN(C(=O)c1ccc(C(F)(F)F)cc1)c1ccc(Oc2ccc3c(c2)cc(C(=O)N2CCN(Cc4ccc(OC(F)F)cc4)CC2)n3C)nc1.O=C(O)/C=C\C(=O)O [Example 401, N-(6-{2-[4-(4-Difluoromethoxybenzyl)piperazine-1-carbonyl]-1-methyl-1H-indol-5-yloxy}pyridin-3-yl)-N-methyl-4-trifluoromethyl-benzamide maleate]		<50%	< 10 nM			< 2 nM	146 to 147 °C	< 10 nM	< 10 nM	< 70 nM
